Measured values from PMC5605198, “MELK is not necessary for the proliferation of basal-like breast cancer cells” (eLife, 2017).

Experiments:
141 kinases = assay: ICKP panel radiometric kinase profiling (summary); assay type: biochemical; conditions: radioactive filter-binding assay; kinases inhibited more strongly than MELK in the ICKP panel; read-out: IC50 values of potential off-target kinases
ERK1/2 = assay: Cellular kinase engagement assay (KiNativ), ATP-biotin probe pull-down; assay type: cell-based; conditions: MDA-MB-468 cells, with MG132, 1 hour
Source text: (§1) After confirming HTH-01-091 as a potent MELK inhibitor in biochemical assays, we next investigated whether HTH-01-091 engages MELK in cells. We performed a KiNativ assay to measure HTH-01-091 engagement with the ATP binding pocket of MELK, which would prevent active-site labeling from a lysine-reactive ATP-biotin probe ([Patricelli et al., 2007]). […] As a control, ERK1/2 pull-down was not affected by HTH-01-091 treatment, consistent with our profiling data showing no binding affinity of HTH-01-091 to ERK1/2 (Figure 2A, Figure 1—source data 1).
(§2) Figure 2. […] (A) Immunoblots analyzing the pull-down levels of MELK and ERK1/2 by ATP-biotin probes and streptavidin beads from MDA-MB-468 cells treated with different doses of HTH-01-091 and […] MG132 for 1 hour. […] See also Figure 2—figure supplement 1 for rescue experiments using carfilzomib and MLN4924. (C) 3-day antiproliferation assays of HTH-01-091 and other MELK inhibitors tested in MDA-MB-468 (basal) and ZR-75-1 (luminal) cells. Values represent two independent experimental mean ±SD. Error bars shorter than the height of the symbol are not drawn. […] Figure 2—figure supplement 1. […]
(§3) MDA-MB-468 cells on 10 cm plates were treated with HTH-01-091 at indicated concentrations and MG132 (10 μM) for an hour. […] The beads were boiled at 95°C for 10 min and analyzed by immunoblotting.

MELK = MELK (Homo sapiens, UniProt Q14680); assay: as above; assay type: cell-based; conditions: MDA-MB-468 cells, different doses, with MG132, 1 hour
Sequence of MELK (Q14680 whole entry): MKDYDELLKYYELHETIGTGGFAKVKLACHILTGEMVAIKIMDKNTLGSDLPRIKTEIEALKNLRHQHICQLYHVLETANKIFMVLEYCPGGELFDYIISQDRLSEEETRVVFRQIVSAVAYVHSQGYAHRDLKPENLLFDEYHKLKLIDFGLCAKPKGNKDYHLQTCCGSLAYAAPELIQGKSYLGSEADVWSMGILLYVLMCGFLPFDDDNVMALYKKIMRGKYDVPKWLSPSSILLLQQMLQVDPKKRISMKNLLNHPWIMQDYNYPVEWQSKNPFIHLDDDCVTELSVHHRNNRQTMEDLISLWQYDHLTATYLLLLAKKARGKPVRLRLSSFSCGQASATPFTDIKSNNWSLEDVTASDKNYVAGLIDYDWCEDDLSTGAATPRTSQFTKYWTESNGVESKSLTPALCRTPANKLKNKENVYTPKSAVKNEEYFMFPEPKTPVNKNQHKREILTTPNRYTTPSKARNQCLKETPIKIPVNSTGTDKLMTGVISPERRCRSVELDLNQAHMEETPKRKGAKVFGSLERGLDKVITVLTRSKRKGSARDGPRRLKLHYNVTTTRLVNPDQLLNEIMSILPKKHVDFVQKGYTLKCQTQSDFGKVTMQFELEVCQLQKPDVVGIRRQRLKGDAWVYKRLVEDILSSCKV
Source text: as §1, §2, §3

[1] = system: select off-target kinases; assay: Off-target kinase inhibition (Z’-LYTE/Adapta), comparison; assay type: biochemical; conditions: from Table 1 IC50 values
[2] = system: WT and MELK−/− MDA-MB-468 cells; assay: 3-day proliferation assays comparing WT and MELK−/− cells; assay type: cell-based; conditions: clone E9 vs clone C7
Source text: We compared a WT clone (clone E9) and a MELK−/− clone (clone C7) with the parental cell line, and observed no significant difference in growth rate or cell cycle distribution (Figure 3A,B,C).
Figure 3. WT and MELK−/− MDA-MB-468 cells have similar growth rates, cell cycle distribution, and sensitivity to MELK inhibitors. (A) Immunoblots for MELK and GAPDH in WT (clone E9) and MELK−/− (clone C7) clones isolated from MDA-MB-468 cells transfected with sgMELK-3 and Cas9. See also Figure 3—figure supplements 1 and 2, and Figure 3—source data 1 for the details of the generation of MELK−/− clones. (B) 5-day proliferation curves comparing the growth rates of parental, WT, and MELK−/− MDA-MB-468 cells. Values represent two independent experimental mean ±SD. (C) Cell cycle analysis comparing WT and MELK−/− MDA-MB-468 cells. Values represent triplicate mean ±SD. […] Values represent duplicate mean ±SD. Error bars shorter than the height of the symbol are not drawn. Figure 3—source data 1. Genotype analysis of single cell clones selected from MDA-MB-468 cells transfected with Cas9/sgMELK-3. Figure 3—figure supplement 1. CRISPR/Cas9-mediated knockout of MELK in MDA-MB-468 cells. (A) Tracking of Indels by Decomposition (TIDE) analysis ([Brinkman et al., 2014]) of MDA-MB-468 cells transfected with Cas9/sgMELK-3 and enriched by the transfection marker OFP. […]

Compound | IC50 (141 kinases) [nM] | ERK1/2 pull-down (control) (ERK1/2) | MELK pull-down by streptavidin beads (ATP-biotin probe) (MELK) | reduced inhibition of the select off-target kinases compared with JW-7-25-1 [1] | difference in sensitivity between WT and MELK−/− cells [2]
CN(C)C[C@H]1CC[C@H](N2C(=O)NCc3cnc4ccc(-c5cc(Cl)c(O)c(Cl)c5)cc4c32)CC1 [HTH-01-091, 9-(3,5-dichloro-4-hydroxyphenyl)-1-(trans-4-((dimethylamino)methyl)cyclohexyl)-3,4-dihydropyrimido[5,4 c]quinolin-2(1H)-one] | 42 to 109 | not affected | dose-dependently decreased MELK pull-down | 20- to 140 fold | –
CC(=O)c1cnc2ccc(-c3cc(Cl)c(O)c(Cl)c3)nc2c1N[C@H]1CC[C@H](CN(C)C)CC1 [OTSSP167] | – | – | – | – | did not observe differences in cell viability
